The values that follow are results of earlier work, collected in US20250026710A1, “PROCESS FOR PREPARING A BENZOATE SALT OF A 1-(3-AMINOPYRROLIDINE-1-CARBONYL)-3,4-DIPHENYLBENZENE COMPOUND” (Astex Pharmaceuticals, Inc., priority 2021, published 2025).

Where a name gives a salt, the structure may show the parent alone.

The conditions of data set [1]: under the tested conditions of WO 2021/095835.
For data set [2] the following is noted: rats, dose 32 mg/5 mL/kg; listed as benzoic acid salt of Compound (A).

The term Cmax denotes the peak of the concentration-time curve. For orientation: Tmax means the time at which the peak concentration occurs. For `CC(C)(O)Cc1ccc(-c2ccc(C(=O)N3CC[C@H](N)C3)cc2-c2ccc(C#N)c(F)c2)c(F)c1` [benzoate salt of Compound (A)], the solid stability entry in data set [1] was “superior solid stability and maintains its purity up to four weeks”. Also, in data set [2], the Cmax was 2680 nM and the Tmax was 2.7 h.
